Consider eight molecules from US7709460B2, “Method for treating or preventing a functional vitamin B12 deficiency in an individual and medical compositions for use in said method” (Cobalz Limited, priority 2001, dated 2010).

Series [1] deals with cob(III)alamin reductase (CR). The following applies: literature study (reference 15); cited from earlier work.
For series [2], the system named is patients with a functional Vitamin B12 deficiency and suffering from a neuropsychiatric abnormality. Briefly: clinical observation of symptoms and behaviour in case reports (Example 2). In kind it is in vivo, human. The text has this:
(§1) The effect of generating a cobalt-sulphur bond by the co-administration of hydroxocobalamin and a glutathione precursor (N-acetyl cysteine or α-lipoic acid) on the symptoms of seven patients suffering from neuropsychiatric abnormalities was investigated.

For series [3] the test system is unchanged. Briefly: cognitive component of the Alzheimer Disease Assessment Scale (ADAS-Cog) in treated patients. In kind it is in vivo, human. As for the experimental part: (§2) Cognitive scores (Mini Metal State Examination (MMSE) and the cognitive component of the Alzheimer Disease Assessment Scale (ADAS-Cog)) were recorded for cases and controls (16, 17).
as §1

Series [4] shares this test system. The experiment in a line: Mini-Mental State Examination (MMSE) in treated patients. In kind it is in vivo, human. As for the experimental part: as §2, §1
Series [5] in a line: side effects reported by patients. Format: in vivo, human.
Series [6] is described as follows: serum homocysteine level under treatment. Format: in vivo, human. The conditions noted are these: Patient 4; monthly hydroxocobalamin plus oral folate, 1999; 23.7 μmol/l before treatment.
Where [7] appears, read: Patient 4, N-acetylcysteine 600 mg daily added to B-vitamin supplementation.
Where [8] appears, read: Patient 7, 600 mg NAC daily added to hydroxocobalamin and folate, one month.
Setting [9] is: Patient 1, N-acetyl cysteine 600 mg daily added to monthly hydroxocobalamin, two weeks.
Where [10] appears, read: Patient 4, monthly hydroxocobalamin plus oral folate, 1999.

Consider `C/C1=C2/[N-][C@H]([C@H](CC(N)=O)[C@@]2(C)CCC(=O)NC[C@@H](C)OP(=O)([O-])O[C@H]2[C@@H](O)[C@@H](n3cnc4cc(C)c(C)cc43)O[C@@H]2CO)[C@]2(C)N=C(/C(C)=C3N=C(/C=C4N=C1[C@@H](CCC(N)=O)C\4(C)C)[C@@H](CCC(N)=O)[C@]\3(C)CC(N)=O)[C@@H](CCC(N)=O)[C@]2(C)CC(N)=O.[CH2-][C@H]1O[C@@H](n2cnc3c(N)ncnc32)[C@H](O)[C@@H]1O.[Co]` [Ado-Cbl, adenosyl cobalamin], for which the “use as substrate / reductase activity” value in series [1] is “Little or no reductase activity”.
`CC(=O)N[C@@H](CS)C(=O)O` [N-acetyl cysteine]: the “clinical response (husband's report)” value in series [2] (Patient 1, N-acetyl cysteine 600 mg daily added to hydroxocobalamin, two weeks) is “some noticeable improvement in their memory”. For the same molecule, in series [2] (Patient 3, severe dementia, oral N-acetyl cysteine 600 mg daily added to hydroxocobalamin), the “clinical response (family and nursing staff)” value is recorded as “significant improvement in their condition”. The “clinical response (behaviour)” value in series [2] (setting [7]) was “their behaviour was considerably improved”. In addition, in series [2] (Patient 5, N-Acetylcysteine 400 mg daily, after three months, three times weekly before), the “frequency of vitamin B12 injections needed” value was “once weekly”. Also, the clinical response result is “more lively and with less headaches” in series [2] (Patient 5, oral N-Acetylcysteine 400 mg daily added to vitamin B12 regime, after a month); “definitely improved” in series [2] (Patient 6, NAC 100 mg daily added to 1 mg oral cobalamin and 5 mg folic acid daily, 4 months). For the same molecule, the “clinical response (staff comment)” value in series [2] (setting [8]) is “less agitated, and more contented”. Also, the “improvement on the ADAS-Cog score” value in series [3] (Patient 1, N-acetyl cysteine 600 mg daily added to hydroxocobalamin, two weeks vs before) is on record as “eight”. In series [3] (setting [9]), the ADAS-Cog score is 20/70. In series [3] (Patient 1, N-acetyl cysteine added to hydroxocobalamin, four-week assessment), the “further change on the ADAS-Cog score” value is recorded as “gained an additional point”. Moreover, the “points gained on ADAS-Cog score” value in series [3] (setting [8]) is 6 points. For the same molecule, the MMSE score is listed as 21/30 in series [4] (setting [9]) and 25/30 in series [4] (Patient 2, oral N-acetylcysteine 600 mg added to hydroxocobalamin, one month). Moreover, the cognitive score entry in series [4] (setting [7]) was “no improvement in their cognitive score”. Further, the side effects entry is given as “some gastroenteric side effects” in series [5] (Patient 5, oral N-Acetylcysteine 400 mg daily) and “gastro intestinal side effects” in series [5] (Patient 6, NAC, limited them to 100 mg daily).
In the case of `Nc1nc2ncc(CNc3ccc(C(=O)N[C@@H](CCC(=O)O)C(=O)O)cc3)nc2c(=O)[nH]1` [folic acid], the clinical response entry in series [2] (Patient 2, age-associated memory impairment, folic acid supplements for some months) is “no significant change in their symptoms”.
Turning to `C/C1=C2/[N-][C@H]([C@H](CC(N)=O)[C@@]2(C)CCC(=O)NC[C@@H](C)OP(=O)([O-])O[C@H]2[C@@H](O)[C@@H](n3cnc4cc(C)c(C)cc43)O[C@@H]2CO)[C@]2(C)N=C(/C(C)=C3N=C(/C=C4N=C1[C@@H](CCC(N)=O)C\4(C)C)[C@@H](CCC(N)=O)[C@]\3(C)CC(N)=O)[C@@H](CCC(N)=O)[C@]2(C)CC(N)=O.[Co+3].[OH-]` [hydroxocobalamin], the serum homocysteine level in series [6] stood at 5.7 µmol/L. Besides, the clinical response result in series [2] (Patient 1, monthly injections of hydroxocobalamin, from 1994) is “neuropsychiatric symptoms were initially much improved”; in series [2] (Patient 3, probable Alzheimer-type dementia, monthly hydroxocobalamin, ensuing 2 years), “their mental condition continued to deteriorate”; in series [2] (Patient 4, probable Alzheimer-type dementia, monthly hydroxocobalamin plus folic acid 5 mg daily), “their cognitive function continued to slowly deteriorate”. Also, in series [2] (Patient 2, monthly injections of hydroxocobalamin), the “clinical response (husband's report)” value is “no significant change in their condition”. Also, the cognitive function entry in series [2] (Patient 7, vascular dementia, weekly hydroxocobalamin injections with oral folate supplement) is “no significant improvement in their cognitive function”. Also, the ADAS-Cog score is 28/70 in series [3] (Patient 1, regular monthly hydroxocobalamin alone, February 2001); 70 in series [3] (setting [10]); 68 in series [3] (Patient 7, weekly hydroxocobalamin with oral folate, before NAC). Further, the MMSE score in series [4] (Patient 1, regular monthly hydroxocobalamin injections alone, February 2001, before N-acetyl cysteine) is recorded as 18/30; in series [4] (Patient 2, monthly hydroxocobalamin, after 6 months) it was 21/30; in series [4] (Patient 3, on monthly hydroxocobalamin, cognitive review in 1997) it was 13/30; in series [4] (setting [10]) it was 5/30.
For the molecule `C/C1=C2/[N-][C@H]([C@H](CC(N)=O)[C@@]2(C)CCC(=O)NC[C@H](C)OP(=O)([O-])O[C@H]2[C@@H](O)[C@@H](n3cnc4cc(C)c(C)cc43)O[C@@H]2CO)[C@]2(C)N=C(/C(C)=C3N=C(/C=C4N=C1[C@@H](CCC(N)=O)C\4(C)C)[C@@H](CCC(N)=O)[C@]\3(C)CC(N)=O)[C@@H](CCC(N)=O)[C@]2(C)CC(N)=O.[CH3-].[Co+3]` [methylcobalamin], the clinical response result in series [2] (Patient 5, Chronic Fatigue Syndrome, subcutaneous methylcobalamin twice weekly) is “clear improvement after only their third injection”. For the same molecule, the “clinical condition on withdrawal of injections” value in series [2] (Patient 5, methylcobalamin injections withdrawn in 1994) is listed as “marked deterioration in relation to the withdrawal of these injections”. In addition, the “use as substrate / reductase activity” value in series [1] is “Little or no reductase activity”.
On to `O=C(O)CCCCC1CCSS1` (stereo not drawn) [α-lipoic acid], for which the clinical response result in series [2] (Patient 4, changed from N-acetylcysteine to α-lipoic acid 50 mg twice daily, with B vitamins) is “clinical improvement was maintained one year later”.
On to cyanocobalamin [CN-Cbl], for which the “use as substrate / reductase activity” value in series [1] was “Little or no reductase activity”.
As to vitamin B12, in series [2] (Patient 6, presumed multiple sclerosis, regular injections of vitamin B12), the clinical response entry was “very apparent improvement in their symptoms”.
